The source of these data is patent US4007196A, “4-Phenylpiperidine compounds” (priority 1973, dated 1977).

The nature of series [1]: Antidepressant daily dose. It counts as in vivo. The settings on record: daily doses. The procedure: In comparison, daily doses of 200-300 mg of imipramine are recommended.
Another series is described as follows: Acute toxicity in mice. Particulars: mouse, in vivo.
The subject of the next series is cardiovascular system. The series can be described thus: Effect on the cardiovascular system (side-effects). The series is classed as in vivo. The settings on record: comparison in words. The source says:
Known tricyclic thymoleptics affect the cardiovascular and peripheral autonomic nervous systems causing a wide range of side-effects. Cardiac disturbances and varying degrees of hypotension occur rather frequently and may be very serious.

A further series deals with 5HT-uptake. Nature of the series: Antagonism of p-chloroamphetamine (PCA)-induced 5HT-depletion from rat brain (5HT-uptake inhibitory activity). The series is classed as in vivo. The settings on record: for ED50: rat brain. The source says:
5HT-uptake inhibitory activity
Antagonism of p-chloroamphetamine (PCA)-induced 5HT-depletion from rat brain: […]

The conditions of series [2]: daily doses; cited from earlier work.

In general, LD50 refers to the dose at which mortality reaches 50%. A low value points to a more toxic substance. By ED50 is commonly meant the dose at which the effect has come halfway, by size or by number of responders.

Counter-ions that a name gives are not always drawn. Like-named read-outs stand apart in the source and are kept apart here.

Turning to `Fc1ccc(C2CCNCC2COc2ccc3c(c2)OCO3)cc1` (single isomer, unassigned) [GF 74, (-)-α-4-(4-Fluorophenyl)-3-(1,3-benzdioxolyl-(3))-oxymethyl piperidine maleate], the “daily dose active as an antidepressant” value in series [1] was 15 to 25 mg. The LD50 in the series “Acute toxicity in mice” (oral administration) came to 500 mg/kg; in “Acute toxicity in mice” (sc, subcutaneous injection), 845 mg/kg. The “effect on the cardiovascular system compared with tricyclic thymoleptics” value in the series on cardiovascular system was “affect the cardiovascular system less than do the most common tricyclic thymoleptics”.
Consider `CN(C)CCCN1c2ccccc2CCc2ccccc21` [Imipramine], for which the “ED50 p.o., antagonism of PCA-induced 5HT-depletion” value in the series with 5HT-uptake (po, 3 h) is given as “+”. Besides, the ED50 in the series with 5HT-uptake (po, p.o., test drugs administered 2 hours before PCA, read-out: ED50 p.o., antagonism of PCA-induced 5HT-depletion) is 44 mg/kg; with 5HT-uptake (sc, test drugs administered s.c. simultaneously with PCA, read-out: ED50 s.c., antagonism of PCA-induced 5HT-depletion) it was 8 mg/kg. Moreover, in series [2], the recommended daily dose is 200 to 300 mg.
